Results on 13 compounds are retold here after ChEMBL document CHEMBL4177539, “Discovery of N-((3R,4R)-4-Fluoro-1-(6-((3-methoxy-1-methyl-1H-pyrazol-4-yl)amino)-9-methyl-9H-purin-2-yl)pyrrolidine-3-yl)acrylamide (PF-06747775) through Structure-Based Drug Design: A High Affinity Irreversible Inhibitor Targeting Oncogenic EGFR Mutants with Selectivity over Wild-Type EGFR” (J Med Chem, 2017).

What is called half-life is the time in which the quantity being followed falls by half. Low values mean fast loss, high ones slow loss. The term Papp denotes the rate of passage across a membrane or cell layer, normalised by area and donor concentration. The low end stands for slow passage, the high end for fast passage. Usually IC50 stands for the point on the concentration scale where inhibition reaches its midpoint. A high value points to lower potency. What is called logD is the decadic logarithm of the distribution of all forms, ionised or not, between an organic phase and buffer at a given pH. Low readings indicate a more hydrophilic compound, high ones a more lipophilic compound. Broadly, the microsomal CLint is a measure of how fast metabolising enzymes remove a compound, apart from limits set by blood flow. Read a high microsomal CLint as rapid turnover.

The nature of data set [1]: physchem. As to conditions: phosphate buffer with glutathione, pH 7.4.
Data set [2] can be described thus: in vitro. The conditions noted are these: dog, MDCK.
The species entered for the next data set is Homo sapiens. As to the kind of experiment: Selectivity index, ratio of IC50 for wild-type EGFR autophosphorylation in human A549 cells to IC50 for EGFR T790M/L858R double mutant autophosphorylation in human H1975 cells. It is filed as cell-based.
Data set [3] concerns the target Epidermal growth factor receptor (Homo sapiens, UniProt P00533).
The nature of data set [4]: physchem. As to conditions: octanol/water.
Data set [5] has as its target Epidermal growth factor receptor (Homo sapiens, UniProt P00533, EX19DEL/T790M).
The target of data set [6] is Epidermal growth factor receptor (Homo sapiens, UniProt P00533, EX19DEL).
Chain of Epidermal growth factor receptor (Homo sapiens, UniProt P00533, EX19DEL) (P00533 whole entry, looked up, stated change not applied): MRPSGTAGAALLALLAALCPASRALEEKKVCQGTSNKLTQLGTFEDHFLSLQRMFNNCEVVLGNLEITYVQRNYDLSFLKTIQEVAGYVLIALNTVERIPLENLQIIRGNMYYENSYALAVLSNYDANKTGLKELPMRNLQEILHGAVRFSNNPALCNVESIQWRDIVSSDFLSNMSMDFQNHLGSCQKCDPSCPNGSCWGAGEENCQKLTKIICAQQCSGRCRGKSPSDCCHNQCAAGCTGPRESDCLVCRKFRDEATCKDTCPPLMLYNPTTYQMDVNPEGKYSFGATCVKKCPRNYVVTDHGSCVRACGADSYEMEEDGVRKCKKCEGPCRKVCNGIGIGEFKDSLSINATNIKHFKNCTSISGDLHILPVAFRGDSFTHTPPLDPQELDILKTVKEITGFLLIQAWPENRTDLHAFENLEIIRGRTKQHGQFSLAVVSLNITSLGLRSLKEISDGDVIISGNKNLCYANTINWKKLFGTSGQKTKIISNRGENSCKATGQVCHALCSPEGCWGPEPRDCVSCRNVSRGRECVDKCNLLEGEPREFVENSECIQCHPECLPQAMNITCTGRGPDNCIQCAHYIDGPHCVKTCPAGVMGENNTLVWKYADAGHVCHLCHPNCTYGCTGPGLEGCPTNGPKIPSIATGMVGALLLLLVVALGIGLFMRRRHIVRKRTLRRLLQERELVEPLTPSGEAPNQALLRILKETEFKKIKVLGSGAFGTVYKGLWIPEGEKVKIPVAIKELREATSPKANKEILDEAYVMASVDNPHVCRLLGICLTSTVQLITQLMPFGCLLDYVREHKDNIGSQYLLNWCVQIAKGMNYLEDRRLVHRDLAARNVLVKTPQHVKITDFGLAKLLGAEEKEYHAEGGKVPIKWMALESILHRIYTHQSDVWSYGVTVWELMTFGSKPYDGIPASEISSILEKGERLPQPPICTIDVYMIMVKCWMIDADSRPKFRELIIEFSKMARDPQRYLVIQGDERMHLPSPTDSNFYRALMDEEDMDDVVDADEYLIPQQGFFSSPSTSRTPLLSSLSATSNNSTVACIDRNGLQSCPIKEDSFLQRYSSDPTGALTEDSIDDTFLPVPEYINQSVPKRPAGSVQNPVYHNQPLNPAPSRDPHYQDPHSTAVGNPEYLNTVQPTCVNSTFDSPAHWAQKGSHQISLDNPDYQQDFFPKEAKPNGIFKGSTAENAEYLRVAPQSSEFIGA
Data set [7] in a line: in vitro. The conditions noted are these: human, liver microsomes. (In general: Liver microsomes are a subcellular fraction often used to study metabolism.)
Another data set relates to Hepatocyte. The conditions noted are these: human, hepatocytes, 1 µM.

Chain of Epidermal growth factor receptor (Homo sapiens, UniProt P00533) (P00533 whole entry): as the sequence (P00533 whole entry, looked up, stated change not applied) above
Chain of Epidermal growth factor receptor (Homo sapiens, UniProt P00533, EX19DEL/T790M) (P00533 whole entry, looked up, stated change not applied): as above

`C=CC(=O)Nc1cc2c(Nc3ccc(F)c(Cl)c3)ncnc2cc1OCCCN1CCOCC1` [CANERTINIB] came in with a half-life at 2 h, 1 µM in “physchem [1]” of 21 min.

In “in vitro [2]”, `CC(C)C(CO)Nc1nc(Nc2ccc(N3CCNCC3)cc2)c2ncn(C(C)C)c2n1` (racemic) registered a Papp of 19 nm/s.

On to `C=CC(=O)N1CC[C@H](Nc2nc(Nc3ccc(N4CCN(C)CC4)cc3)c3ncn(C(C)C)c3n2)C1`, for which, in the data set filed under Homo sapiens, the Ratio IC50 is greater than 35. In data set [3], this compound displayed a half-inhibitory concentration (IC50) greater than 10 µM. The logD in “physchem [4]” turned out to be 1.8.

For `C=CC(=O)N[C@@H]1CN(c2nc(Nc3cn(C)nc3C)c3ncn(C(C)C)c3n2)C[C@H]1F`, in the data set filed under Homo sapiens, the Ratio IC50 was 56. Further, the IC50 in data set [3] is 1.45 µM; in data set [5], 0.004 µM; in data set [6] it was 0.016 µM. In “physchem [4]”, the logD was 2.6. The compound further yielded a microsomal CLint at […], 1 µM in “in vitro [7]” of 30 µL/min/mg.

As for `C=CC(=O)N[C@@H]1CN(c2nc(Nc3cn(C)nc3OC)c3ncn(C(C)C)c3n2)C[C@H]1F`, the CLH in the data set on Hepatocyte is 23 µL/min/mg. In “physchem [4]”, this compound returned a logD of 2.6. The compound further displayed a microsomal CLint at […], 1 µM in the data set “in vitro [7]” of 32 µL/min/mg. The compound also gave a Papp in “in vitro [2]” of 180 nm/s.

Consider `C=CC(=O)N[C@@H]1CN(c2nc(Nc3cn(C)nc3OC)c3nc[nH]c3n2)C[C@H]1F`, for which, in the data set “physchem [4]”, the logD was 1.8. The same compound returned a microsomal CLint at […], 1 µM in “in vitro [7]” of 8 µL/min/mg. Further, the Papp in “in vitro [2]” is 20 nm/s.

Regarding `C=CC(=O)N[C@@H]1CCN(c2nc(Nc3ccc(N4CCN(C)CC4)cc3)c3ncn(C(C)C)c3n2)C1`, the pH-dependent lipophilicity (logD) in “physchem [4]” was 2.

Take `C=CC(=O)N1CC[C@@H](Nc2nc(Nc3ccc(N4CCN(C)CC4)cc3)c3ncn(C(C)C)c3n2)C1`: the Ratio IC50 in the data set filed under Homo sapiens was found to be 13. The compound also came in with a logD in the data set “physchem [4]” of 2.5.

With `C=CC(=O)N1C[C@@H]2CN(c3nc(Nc4cnn(C)c4)c4ncn(C(C)C)c4n3)C[C@@H]2C1`, the Ratio IC50 in the data set listed under Homo sapiens came to 16. The compound also came in with a logD in the data set “physchem [4]” of 2.2.

Turning to `C=CC(=O)N[C@H]1CCN(c2nc(Nc3ccc(N4CCN(C)CC4)cc3)c3ncn(C(C)C)c3n2)C1`, the Ratio IC50 in the data set filed under Homo sapiens amounted to 15. The compound also came in with a logD in “physchem [4]” of 2.2.

As to `C=CC(=O)N[C@@H]1CCN(c2nc(Nc3cnn(C)c3)c3ncn(C(C)C)c3n2)C1`, the logD in the data set “physchem [4]” turned out to be 2.7.

For the compound `C=CC(=O)N[C@H]1CCN(c2nc(Nc3cnn(C)c3)c3ncn(C(C)C)c3n2)C1`, the Ratio IC50 in the data set listed under Homo sapiens was 13. Further, the logD in the data set “physchem [4]” was 2.3.

In “physchem [4]”, `C=CC(=O)N[C@@H]1CN(c2nc(Nc3cn(C)nc3CC)c3ncn(C(C)C)c3n2)C[C@H]1F` came in with a logD of 3.5. The same compound displayed a microsomal CLint at […], 1 µM in “in vitro [7]” of 81 µL/min/mg.
